Legend:
[1] = tested on: Sprague-Dawley rats; assay: Assessment of wake promotion in Sprague-Dawley rats (EEG/EMG); format: in vivo, rat; conditions: male Sprague-Dawley rats, 3 mpk, dosed at ZT5, 6-hour post-dose period
Protocol: Wake promotion was assessed using electroencephalography (EEG) and electromyography (EMG) in adult male Sprague-Dawley rats. All rats (Charles River Laboratories, Raleigh, NC, USA) were intraperitoneally implanted with telemetry devices (F50-EEE, Data Sciences International Inc., MN, USA) under isoflurane anesthesia. For EEG, stainless steel screws were implanted over frontal cortex and parietal cortex, and reference screws were placed over cerebellum. Additionally, an electrode was placed in neck muscle for EMG. Rats were given carprofen post-surgery and underwent a 7 to 10-day recovery period. Rats habituated to the experimental room for 7 days and were maintained on a 12-hour light-dark cycle.
EEG and EMG data were recorded using the DSI telemetry system and Ponemah software (Data Sciences International Inc., MN, USA). Sleep-wake stages were scored both manually and with Somnivore, a supervised machine learning software platform, in 10 second epochs. Records were visually inspected as needed post-processing.
All test compounds were dissolved in 5% DMSO and suspended in 95% saline with 0.5% methylcellulose and 0.5% tween. […] Unless otherwise indicated, all compounds were dosed orally. Recordings for each rat were initiated immediately after dosing and lasted for 6 hours post-dose.
Two key endpoints include wakefulness time and cortical activation time. Wakefulness time is derived from the sleep-wake stage analysis. Cortical activation time is based on the duration in which frontal gamma oscillatory activity (30-100 Hz), a key feature of wakefulness, was elevated relative to a pre-treatment baseline. Mean cortical activation time was computed relative to vehicle treatment for the 6-hour post-dose period.

[2] = target: T1, human orexin-2 receptor (OX2R) (Homo sapiens, UniProt O43614); assay: Human OX2R IP1 assay; format: cell-based; conditions: T-Rex CHO cells stably overexpressing human OX2R; IP1 accumulation; 1 hr at 37 degrees C; mean EC50
T1 construct: expressed in transfected cells
T1 sequence (O43614 1-444): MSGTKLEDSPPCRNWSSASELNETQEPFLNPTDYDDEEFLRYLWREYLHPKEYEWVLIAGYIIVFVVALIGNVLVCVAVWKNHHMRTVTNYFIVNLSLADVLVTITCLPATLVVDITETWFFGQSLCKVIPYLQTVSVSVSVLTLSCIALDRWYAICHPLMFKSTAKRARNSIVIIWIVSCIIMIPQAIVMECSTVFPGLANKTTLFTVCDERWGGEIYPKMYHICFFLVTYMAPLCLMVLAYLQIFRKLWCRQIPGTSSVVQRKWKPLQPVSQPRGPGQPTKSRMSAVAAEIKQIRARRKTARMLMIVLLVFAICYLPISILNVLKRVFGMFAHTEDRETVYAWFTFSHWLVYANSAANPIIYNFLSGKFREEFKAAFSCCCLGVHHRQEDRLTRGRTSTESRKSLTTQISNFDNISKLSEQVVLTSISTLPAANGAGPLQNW
How it was run: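 T-Rex CHO cells stably expressing human OX2R, doxycycline-induced (1 μg/mL) overnight, treated with compounds 1 h at 37 °C in pH 7.4 buffer with 50 mM LiCl. IP1 accumulation read by HTRF competitive immunoassay after 1 h at room temperature; agonist EC50 reported as mean ± S.E.M.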

[3] = tested on: human hepatocytes; assay: Hepatocytes stability assay (human hepatocytes); format: in vitro ADME; conditions: human hepatocytes; scaled hepatic clearance divided by liver blood flow (well-stirred model, fu assumed unity)
How it was run: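 Compound at 1 μM (0.1% DMSO) was incubated with cryopreserved pooled human hepatocytes, 1×10^6 cells/mL in Krebs-Henseleit buffer, at 37 °C, sampled up to 240 min. Parent depletion by LC-MS/MS; half-life from first-order decay gave CLint, scaled to hepatic clearance by well-stirred model (fu assumed 1) and extraction ratio.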

Structure (SMILES): CC(C)S(=O)(=O)N[C@H]1CCN2C(=O)COc3c(F)cc(F)cc3[C@H]3CC[C@H](CC3)OC[C@@H]12 [Compound 29]
- Mean cortical activation time (% vehicle treatment) ([1]; PO): 214.61 % vehicle treatment
- EC50 [2]: < 10 nM
- Extraction Ratio (ER) [3]: 0.70

Structure (SMILES): CC(C)(O)C(=O)N1CC[C@H](NS(C)(=O)=O)[C@@H]1Cc1cccc(-c2cc(F)cc(F)c2)c1F [Reference Compound B, N-((2S,3S)-1-(2-hydroxy-2-methylpropanoy1)-2-((2,3′,5′-trifluorobipheny1-3-yl)methyl)pyrrolidin-3-yl)methanesulfonamide, reference compound]
- Mean cortical activation time (% vehicle treatment) ([1]; PO): 110.4 % vehicle treatment
- EC50 [2]: 10 to 1000 nM
- Extraction Ratio (ER) [3]: 0.19

Structure (SMILES): O=C1COc2cccc(F)c2[C@H]2CC[C@H](CC2)OCC2[C@@H](NS(=O)(=O)C(F)(F)F)CCCN12 (stereo in doubt) [Compound 95]
- Mean cortical activation time (% vehicle treatment) ([1]; PO): 312.26 % vehicle treatment
- EC50 [2]: < 10 nM
- Extraction Ratio (ER) [3]: 0.33

Structure (SMILES): O=C1COc2nccnc2[C@H]2CC[C@H](CC2)OCC2[C@@H](NS(=O)(=O)C(F)(F)F)CCCN12 (stereo in doubt) [Compound 98]
- Mean cortical activation time (% vehicle treatment) ([1]; PO): 84.91 % vehicle treatment
- EC50 [2]: < 10 nM
- Extraction Ratio (ER) [3]: <0.22

Structure (SMILES): Cc1ccnc2c1[C@H]1CC[C@H](CC1)OCC1[C@@H](NS(=O)(=O)C(F)(F)F)CCN1C(=O)CO2 (stereo in doubt) [Compound 94]
- Mean cortical activation time (% vehicle treatment) ([1]; PO): 152.81 % vehicle treatment
- EC50 [2]: < 10 nM
- Extraction Ratio (ER) [3]: <0.22

Structure (SMILES): Cc1cccc2c1[C@H]1CC[C@H](CC1)OC[C@H]1[C@@H](NS(C)(=O)=O)CCN1C(=O)CO2 [Compound 20]
- Mean cortical activation time (% vehicle treatment) ([1]; PO): 154.26 % vehicle treatment
- EC50 [2]: < 10 nM
- Extraction Ratio (ER) [3]: 0.80

Structure (SMILES): Cc1ncnc2c1[C@H]1CC[C@H](CC1)OCC1[C@@H](NS(=O)(=O)C(F)(F)F)CCCN1C(=O)CO2 (stereo in doubt) [Compound 99]
- Mean cortical activation time (% vehicle treatment) ([1]; PO): 97.17 % vehicle treatment
- EC50 [2]: < 10 nM
- Extraction Ratio (ER) [3]: <0.22

Structure (SMILES): O=C1COc2ccccc2[C@H]2CC[C@H](CC2)OCC2[C@@H](NS(=O)(=O)C(F)(F)F)CCN12 (stereo in doubt) [Compound 100]
- Mean cortical activation time (% vehicle treatment) ([1]; PO): 265.17 % vehicle treatment
- EC50 [2]: < 10 nM
- Extraction Ratio (ER) [3]: 0.274

Structure (SMILES): O=C1COc2ncccc2[C@H]2CC[C@H](CC2)OCC2[C@@H](NS(=O)(=O)C(F)(F)F)CCCN12 (stereo in doubt) [Compound 91]
- Mean cortical activation time (% vehicle treatment) ([1]; PO): 151.55 % vehicle treatment
- EC50 [2]: < 10 nM
- Extraction Ratio (ER) [3]: 0.42

Structure (SMILES): COC(=O)N1CCC[C@H](NS(C)(=O)=O)[C@@H]1CO[C@H]1CC[C@@H](c2ccccc2)CC1 [Reference Compound A, methyl (2R,3S)-3-((methylsulfonyl)amino)-2-(((cis-4-phenylcyclohexyl)oxy)methyl)-piperidine-l-carboxylate, reference compound]
- Mean cortical activation time (% vehicle treatment) ([1]; SC): 118.75 % vehicle treatment
- EC50 [2]: < 10 nM
- Extraction Ratio (ER) [3]: 0.92

Structure (SMILES): Cc1ncnc2c1[C@H]1CC[C@H](CC1)OCC1[C@@H](NS(C)(=O)=O)CCCN1C(=O)CO2 (stereo in doubt) [Compound 27]
- Mean cortical activation time (% vehicle treatment) ([1]; PO): 138.57 % vehicle treatment
- EC50 [2]: < 10 nM
- Extraction Ratio (ER) [3]: <0.22
